Test results reported in US10442763B2, “EBNA1 inhibitors and methods using same” (priority 2015, dated 2019).

Target: T1, His-EBNA1 (DNA binding domain of EBNA1, amino acids 459-607) (Epstein-Barr virus, UniProt P03211)
T1 construct: made in house; host or cells: E. coli
Assay: Inhibition of 5'-biotin-oPL4624 binding to His-EBNA1 using Alpha Screen technology
Description: Inhibition of 5′-Biotin-oPL4624 Binding to his-EBNA1 Using Alpha Screen Technology
Assays were performed using the DNA binding domain of EBNA1 (amino acids 459-607), which was His-tagged (His-EBNA1) and the self-complementary biotinylated (bt) oligonucleotide with the sequence 5′-bt-[…]-ATGCTACCC-3′ (bt-oPL4624; or 5′-bt-SEQ ID NO: 1). The protein was expressed in E. coli and purified according to Barwell, et al., 1995, J Biol Chem. 270:20556-9.). The bt-oPL4624 oligonucleotide was purchased from Integrated DNA Technologies, Inc (IDT). AlphaScreen donor, acceptor beads and white, opaque 384-well assay plates were purchased from PerkinElmer, Inc.
Assays contained 15 nM His-EBNA1, 0.2 nM bt-oPL4624, 5 μg/mL AlphaScreen streptavidin donor beads and nickel chelate acceptor beads, and a series of concentrations of test compound ranging from 3.2 nM to 100 μM in a total volume of 40 μL assay buffer (25 mM Tris, pH 7.2, 160 mM NaCl, 1 mM MgCl2). His-EBNA1 (30 nM) and bt-oPL4624 (0.4 nM) were preincubated with 10 μg/mL nickel chelate AlphaScreen acceptor bead, or 10 μg/mL streptavidin AlphaScreen donor bead, respectively, for 30 minutes at room temperature in assay buffer. Twenty microliters of His-EBNA1/acceptor bead mix and bt-oPL4624/donor bead mix were transferred to assay plates containing 0.4 μL of 1:3 serial dilutions of test compounds previously prepared in DMSO at concentrations ranging from 0.32 μM to 10 mM. Non-specific binding was determined with 5 μg/mL AlphaScreen acceptor bead in the absence of His-EBNA1. After 2 hr incubation at room temperature, the AlphaScreen signal was measured on the Envision plate reader (PerkinElmer, Inc.) at 680 nm excitation and 570 nm emission. Inhibition values at each concentration of test compound were determined by setting 100% equal to raw data values in the absence of EBNA1 and 0% equal to the raw data values in the presence of EBNA1. Nonlinear regression fits of the inhibition values to a one-site dose-response equation were performed using GraphPad Prism.

T1 sequence (P03211 459-607): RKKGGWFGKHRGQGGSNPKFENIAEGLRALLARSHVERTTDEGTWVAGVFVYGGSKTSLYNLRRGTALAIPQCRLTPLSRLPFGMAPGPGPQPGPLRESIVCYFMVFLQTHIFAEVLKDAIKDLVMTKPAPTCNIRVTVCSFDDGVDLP

Row | SMILES | IC50 [µM]
1 | O=C(O)c1cccc(C#Cc2ccc3ccn(CCN4CCOCC4)c3c2)c1-c1ccc2cc[nH]c2c1 [Entry 1] | 10 to 100
2 | CC(=O)Nc1cc(C#Cc2cccc(C(=O)O)c2-c2ccc3cc[nH]c3c2)ccc1OC1CCOCC1 [Entry 2] | 10 to 100
3 | CC(=O)N1C2CCC1CC(c1ccc(C#Cc3cccc(C(=O)O)c3-c3ccc4cc[nH]c4c3)cc1)C2 (stereo not drawn) [Entry 3] | 10 to 100
4 | CN(C)CCn1ccc2cc(C#Cc3cccc(C(=O)O)c3-c3ccc4cc[nH]c4c3)cnc21 [Entry 4] | 1 to 10
5 | CN(C)CCCn1ccc2cc(C#Cc3cccc(C(=O)O)c3-c3ccc4cc[nH]c4c3)cnc21 [Entry 5] | 10 to 100
6 | O=C(O)c1cccc(C#Cc2cnc3c(ccn3CCCN3CCOCC3)c2)c1-c1ccc2cc[nH]c2c1 [Entry 6] | 1 to 10
7 | O=C(O)c1cccc(C#Cc2cn(CCCN3CCOCC3)c3ncccc23)c1-c1ccc2cc[nH]c2c1 [Entry 7] | 10 to 100
8 | O=C(O)c1cccc(C#Cc2cnc3c(ccn3CCN3CCOCC3)c2)c1-c1ccc2cc[nH]c2c1 [Entry 8] | 1 to 10
9 | O=C(O)c1cccc(C#Cc2cn(CCN3CCOCC3)c3ncccc23)c1-c1ccc2cc[nH]c2c1 [Entry 10] | 10 to 100
10 | CN(C)CCCn1cc(C#Cc2cccc(C(=O)O)c2-c2ccc3cc[nH]c3c2)c2cccnc21 [Entry 11] | 100 to 1000
11 | O=C(O)c1cccc(C#Cc2cnc3c(ccn3CCN3CCS(=O)(=O)CC3)c2)c1-c1ccc2cc[nH]c2c1 [Entry 12] | 10 to 100
12 | O=C(O)c1cccc(C#Cc2ccc3c(ccn3CCN3CCOCC3)c2)c1-c1ccc2cc[nH]c2c1 [Entry 13] | 10 to 100
13 | O=C(O)c1cccc(C#Cc2ccc3c(ccn3CCCN3CCOCC3)c2)c1-c1ccc2cc[nH]c2c1 [Entry 14] | 10 to 100
14 | O=C(O)c1cccc(C#Cc2ccc3ccn(CCCN4CCOCC4)c3c2)c1-c1ccc2cc[nH]c2c1 [Entry 15] | 10 to 100
15 | O=C(O)c1cccc(C#Cc2cnc3c(c2)CCCN3)c1-c1ccc2cc[nH]c2c1 [Entry 16] | 1 to 10
16 | O=C(O)c1cccc(C#Cc2cnc3c(ccn3CC3CCOCC3)c2)c1-c1ccc2cc[nH]c2c1 [Entry 17] | 1 to 10
17 | O=C(O)c1cccc(C#Cc2ccc3c(ccn3CC3CCOCC3)c2)c1-c1ccc2cc[nH]c2c1 [Entry 18] | 1 to 10
18 | CS(=O)(=O)N1CCC(Cn2ccc3cc(C#Cc4cccc(C(=O)O)c4-c4ccc5cc[nH]c5c4)ccc32)CC1 [Entry 19] | 1 to 10
19 | CS(=O)(=O)N1CCC(Cn2ccc3cc(C#Cc4cccc(C(=O)O)c4-c4ccc5cc[nH]c5c4)cnc32)CC1 [Entry 20] | 1 to 10
20 | O=C(O)c1cccc(C#Cc2cnc3c(ccn3CC3CCS(=O)(=O)CC3)c2)c1-c1ccc2cc[nH]c2c1 [Entry 21] | 1 to 10
21 | O=C(O)c1cccc(C#Cc2ccc3c(ccn3CCN3CCS(=O)(=O)CC3)c2)c1-c1ccc2cc[nH]c2c1 [Entry 22] | 1 to 10

Row | SMILES | IC50 [µM]
22 | O=C(O)c1cccc(C#Cc2ccc3ccn(CCN4CCS(=O)(=O)CC4)c3c2)c1-c1ccc2cc[nH]c2c1 [Entry 23] | 10 to 100
23 | O=C(O)c1cccc(C#Cc2ccc3c(ccn3CCCN3CCS(=O)(=O)CC3)c2)c1-c1ccc2cc[nH]c2c1 [Entry 24] | 10 to 100
24 | O=C(O)c1cccc(C#Cc2ccc3ccn(CCCN4CCS(=O)(=O)CC4)c3c2)c1-c1ccc2cc[nH]c2c1 [Entry 25] | 1 to 10
25 | O=C(O)c1cccc(C#Cc2ccc(COC3CCS(=O)(=O)CC3)cc2)c1-c1ccc2cc[nH]c2c1 [Entry 26] | 10 to 100
26 | O=C(O)c1cccc(C#Cc2ccc(COC3CCOCC3)cc2)c1-c1ccc2cc[nH]c2c1 [Entry 27] | 10 to 100
27 | CC(C)OCc1ccc(C#Cc2cccc(C(=O)O)c2-c2ccc3cc[nH]c3c2)cc1 [Entry 28] | 1 to 10
28 | O=C(O)c1cccc(C#Cc2ccc(OC3CC[S+]([O-])CC3)cc2)c1-c1ccc2cc[nH]c2c1 (stereo not drawn) [Entry 29] | 10 to 100
29 | O=C(O)c1cccc(C#Cc2ccc3c(CN4CCOCC4)c[nH]c3c2)c1-c1ccc2cc[nH]c2c1 [Entry 30] | 10 to 100
30 | CS(=O)(=O)N1CCN(Cc2c[nH]c3cc(C#Cc4cccc(C(=O)O)c4-c4ccc5cc[nH]c5c4)ccc23)CC1 [Entry 31] | 1 to 10
31 | O=C(O)c1cccc(C#Cc2ccc3c(CN4CCS(=O)(=O)CC4)c[nH]c3c2)c1-c1ccc2cc[nH]c2c1 [Entry 32] | 1 to 10
32 | O=C(O)c1cccc(C#Cc2ccc3cc(CN4CCOCC4)[nH]c3c2)c1-c1ccc2cc[nH]c2c1 [Entry 33] | 10 to 100
33 | O=C(O)c1cccc(C#Cc2ccc3cc(CN4CCS(=O)(=O)CC4)[nH]c3c2)c1-c1ccc2cc[nH]c2c1 [Entry 34] | 1 to 10
34 | O=C(O)c1cccc(C#Cc2cc3ccn(CC4CCOCC4)c3cc2F)c1-c1ccc2cc[nH]c2c1 [Entry 35] | 1 to 10
35 | O=C(O)c1cccc(C#Cc2ccc3ccn(CC4CCOCC4)c3c2F)c1-c1ccc2cc[nH]c2c1 [Entry 36] | 1 to 10
36 | O=C(O)c1cccc(C#Cc2ccc3ccn(CC4CCS(=O)(=O)CC4)c3c2F)c1-c1ccc2cc[nH]c2c1 [Entry 37] | 1 to 10
37 | O=C(O)c1cccc(C#Cc2cc3ccn(CC4CCS(=O)(=O)CC4)c3cc2F)c1-c1ccc2cc[nH]c2c1 [Entry 38] | 1 to 10
38 | O=C(O)c1cccc(C#Cc2ccc3c(CN4CCOCC4)c[nH]c3c2F)c1-c1ccc2cc[nH]c2c1 [Entry 39] | 1 to 10
39 | O=C(O)c1cccc(C#Cc2cc3c(CN4CCOCC4)c[nH]c3cc2F)c1-c1ccc2cc[nH]c2c1 [Entry 40] | 10 to 100
40 | O=C(O)c1cccc(C#Cc2ccc(-c3nn[nH]n3)cc2)c1-c1ccc2cc[nH]c2c1 [Entry 41] | < 1
41 | O=C(O)c1cccc(C#Cc2cccc(-c3nn[nH]n3)c2)c1-c1ccc2cc[nH]c2c1 [Entry 42] | < 1
42 | O=C(O)c1cccc(C#Cc2ccc(-c3cnco3)cc2)c1-c1ccc2cc[nH]c2c1 [Entry 43] | 1 to 10

Row | SMILES | IC50 [µM]
43 | O=C(O)c1cccc(C#Cc2ccc(-c3ccc(=O)[nH]n3)cc2)c1-c1ccc2cc[nH]c2c1 [Entry 44] | 1 to 10
44 | COc1cc(C#Cc2cccc(C(=O)O)c2-c2ccc3cc[nH]c3c2)ccc1CN1CCOCC1 [Entry 45] | 10 to 100
45 | O=C(O)c1cccc(C#Cc2ccc(C(=O)N3CCOCC3)c(O)c2)c1-c1ccc2cc[nH]c2c1 [Entry 46] | 10 to 100
46 | COc1cc(C#Cc2cccc(C(=O)O)c2-c2ccc3cc[nH]c3c2)ccc1CN1CCC(N2CCOCC2)CC1 [Entry 47] | 100 to 1000
47 | COc1cc(C#Cc2cccc(C(=O)O)c2-c2ccc3cc[nH]c3c2)ccc1CN1CCC(F)(F)CC1 [Entry 48] | 1 to 10
48 | O=C(O)c1cccc(C#Cc2ccc(C(=O)N3CCC(N4CCOCC4)CC3)c(O)c2)c1-c1ccc2cc[nH]c2c1 [Entry 50] | 1 to 10
49 | O=C(O)c1cccc(C#Cc2ccc(C(=O)N3CCC(F)(F)CC3)c(O)c2)c1-c1ccc2cc[nH]c2c1 [Entry 51] | 1 to 10
50 | CS(=O)(=O)N1CCC(Cc2ccc(C#Cc3cccc(C(=O)O)c3-c3ccc4cc[nH]c4c3)cc2)CC1 [Entry 52] | 1 to 10
51 | O=C(O)c1cccc(C#Cc2ccc(CC3CCN(S(=O)(=O)C(F)(F)F)CC3)cc2)c1-c1ccc2cc[nH]c2c1 [Entry 53] | 1 to 10
52 | CC(C)S(=O)(=O)N1CCC(Cc2ccc(C#Cc3cccc(C(=O)O)c3-c3ccc4cc[nH]c4c3)cc2)CC1 [Entry 54] | 1 to 10
53 | CC(=O)N1CCC(Cc2ccc(C#Cc3cccc(C(=O)O)c3-c3ccc4cc[nH]c4c3)cc2)CC1 [Entry 55] | 1 to 10
54 | CC(=O)N1Cc2ccc(C#Cc3cccc(C(=O)O)c3-c3ccc4cc[nH]c4c3)cc2C1 [Entry 56] | 1 to 10
55 | CC(C)S(=O)(=O)N1Cc2ccc(C#Cc3cccc(C(=O)O)c3-c3ccc4cc[nH]c4c3)cc2C1 [Entry 57] | 1 to 10
56 | CS(=O)(=O)N1CCC(N2CCc3ccc(C#Cc4cccc(C(=O)O)c4-c4ccc5cc[nH]c5c4)cc3C2)C1 (stereo not drawn) [Entry 58] | 10 to 100
57 | CS(=O)(=O)N1CCC(CN2CCc3cc(C#Cc4cccc(C(=O)O)c4-c4ccc5cc[nH]c5c4)ccc3C2)CC1 [Entry 59] | 10 to 100
58 | CS(=O)(=O)N1CC(N2CCc3cc(C#Cc4cccc(C(=O)O)c4-c4ccc5cc[nH]c5c4)ccc3C2)C1 [Entry 60] | 10 to 100
59 | CS(=O)(=O)N1CCC(CN2CCc3cc(C#Cc4cccc(C(=O)O)c4-c4ccc5cc[nH]c5c4)ccc3C2)C1 (stereo not drawn) [Entry 61] | 10 to 100
60 | CS(=O)(=O)N1CCC(CN2CCc3ccc(C#Cc4cccc(C(=O)O)c4-c4ccc5cc[nH]c5c4)cc3C2)C1 (stereo not drawn) [Entry 62] | 10 to 100
61 | CC(=O)N1CCC(CN2CCc3ccc(C#Cc4cccc(C(=O)O)c4-c4ccc5cc[nH]c5c4)cc3C2)C1 (stereo not drawn) [Entry 63] | 10 to 100
62 | CS(=O)(=O)N1CC(CN2CCc3cc(C#Cc4cccc(C(=O)O)c4-c4ccc5cc[nH]c5c4)ccc3C2)C1 [Entry 64] | 10 to 100
63 | CS(=O)(=O)N1CC(CN2CCc3ccc(C#Cc4cccc(C(=O)O)c4-c4ccc5cc[nH]c5c4)cc3C2)C1 [Entry 65] | 10 to 100
